From patent US20250195521A1 (Revolution Medicines, Inc., priority 2020, published 2025)
Where two headings read alike, the source gives them in different places.

Columns and labels:
[1] = tested on: NCI-H358 cells (K-Ras G12C); assay: CellTiter-Glo cell viability, NCI-H358; assay type: cell-based, human; conditions: Homo sapiens, NCI-H358, 120 h, read-out: H358 Cell Viability IC50
Procedure: Note—The following protocol describes a procedure for monitoring cell viability of K-Ras mutant cancer cell lines in response to a compound of the invention. Other RAS isoforms may be employed, though the number of cells to be seeded will vary based on cell line used.
Test compounds (132.5 nl) were directly dispensed into the assay plates containing cells. […] On day 5, assay plates and their contents were equilibrated to room temperature for approximately 30 minutes. […] Luminescence was measured using the PerkinElmer Enspire. Data were normalized by the following: (Sample signal/Avg. DMSO)*100. The data were fit using a four-parameter logistic fit.

[2] = tested on: Capan-1 cells (K-Ras G12V); assay: CellTiter-Glo cell viability, Capan-1; assay type: cell-based, human; conditions: Homo sapiens, CAPAN-1, 120 h, read-out: Capan-1 Cell Viability IC50
Outline: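 Compounds dispensed directly onto seeded cells; on day 5 plates equilibrated ~30 min to room temperature and luminescence read. Signal normalized to DMSO average (%) and fitted by four-parameter logistic.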

KRAS G12C = KRAS G12C (Homo sapiens (Human), UniProt P01116+P62937, G12C); assay: Ras-Raf disruption/FRET/MOA assay (BRAF RBD, Cyclophilin A); assay type: biochemical; conditions: read-out: KRAS G12C FRET IC50
KRAS G12C, sequence (P01116-2 other isoform, or with tags, fused parts or gaps G12C): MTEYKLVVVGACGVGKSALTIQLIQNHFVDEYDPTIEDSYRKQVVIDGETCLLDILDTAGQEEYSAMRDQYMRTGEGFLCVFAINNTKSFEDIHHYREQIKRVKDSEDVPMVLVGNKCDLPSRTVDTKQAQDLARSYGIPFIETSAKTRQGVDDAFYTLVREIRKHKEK
KRAS G12C, sequence (P62937 whole entry): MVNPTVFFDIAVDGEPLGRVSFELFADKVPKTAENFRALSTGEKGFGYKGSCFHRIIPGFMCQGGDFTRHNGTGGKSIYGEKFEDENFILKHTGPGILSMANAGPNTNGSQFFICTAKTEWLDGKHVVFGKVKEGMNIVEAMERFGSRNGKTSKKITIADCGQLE
Outline: (§1)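 First, 25 μM Cyclophilin A, 12.5 nM His6-Ras-GMPPNP and 50 nM GST-BRAF RBD are mixed with diluted compound at pH 7.3. Next, 3 h at 25° C. Then 10 nM anti-His Eu-W1024 plus 50 nM anti-GST allophycocyanin for 1.5 h before TR-FRET reading.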

KRAS G12D = KRAS G12D (Homo sapiens (Human), UniProt P01116+P62937, G12D); assay: as above; assay type: biochemical; conditions: read-out: KRAS G12D FRET IC50
KRAS G12D, sequence (P01116 other isoform, or with tags, fused parts or gaps G12D): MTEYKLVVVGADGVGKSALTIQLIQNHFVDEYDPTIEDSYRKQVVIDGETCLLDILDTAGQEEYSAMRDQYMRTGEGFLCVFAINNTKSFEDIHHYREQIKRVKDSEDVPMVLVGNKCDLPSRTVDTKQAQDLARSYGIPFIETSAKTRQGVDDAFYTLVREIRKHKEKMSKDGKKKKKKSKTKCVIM
KRAS G12D, sequence (P62937 whole entry): as the sequence (P62937 whole entry) above
Outline: as §1

KRAS G12S = KRAS G12S (Homo sapiens (Human), UniProt P01116+P62937, G12S); assay: as above; assay type: biochemical; conditions: read-out: KRAS G12S FRET IC50
KRAS G12S, sequence (P01116 other isoform, or with tags, fused parts or gaps G12S): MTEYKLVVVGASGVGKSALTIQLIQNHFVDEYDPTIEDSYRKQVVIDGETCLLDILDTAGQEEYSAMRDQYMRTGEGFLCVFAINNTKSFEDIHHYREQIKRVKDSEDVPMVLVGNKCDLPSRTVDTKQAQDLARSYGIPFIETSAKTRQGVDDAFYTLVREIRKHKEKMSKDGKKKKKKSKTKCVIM
KRAS G12S, sequence (P62937 whole entry): as the sequence (P62937 whole entry) above
Outline: as §1

KRAS G12V = KRAS G12V (Homo sapiens (Human), UniProt P01116+P62937, G12V); assay: as above; assay type: biochemical; conditions: read-out: KRAS G12V FRET IC50
KRAS G12V, sequence (P01116 other isoform, or with tags, fused parts or gaps G12V): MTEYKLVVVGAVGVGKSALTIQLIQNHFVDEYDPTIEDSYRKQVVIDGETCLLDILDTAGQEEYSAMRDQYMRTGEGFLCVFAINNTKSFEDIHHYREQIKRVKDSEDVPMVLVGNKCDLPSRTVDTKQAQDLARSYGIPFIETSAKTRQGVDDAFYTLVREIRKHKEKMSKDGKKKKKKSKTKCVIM
KRAS G12V, sequence (P62937 whole entry): as the sequence (P62937 whole entry) above
Outline: as §1

KRAS G13C = KRAS G13C (Homo sapiens (Human), UniProt P01116+P62937, G13C); assay: as above; assay type: biochemical; conditions: read-out: KRAS G13C FRET IC50
KRAS G13C, sequence (P01116 other isoform, or with tags, fused parts or gaps G13C): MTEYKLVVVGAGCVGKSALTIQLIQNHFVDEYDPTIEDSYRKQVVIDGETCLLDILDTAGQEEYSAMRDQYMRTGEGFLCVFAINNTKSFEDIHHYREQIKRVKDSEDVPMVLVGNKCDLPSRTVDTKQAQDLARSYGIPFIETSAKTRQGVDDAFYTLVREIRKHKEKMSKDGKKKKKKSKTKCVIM
KRAS G13C, sequence (P62937 whole entry): as the sequence (P62937 whole entry) above
Outline: as §1

KRAS G13D = KRAS G13D (Homo sapiens (Human), UniProt P01116+P62937, G13D); assay: as above; assay type: biochemical; conditions: read-out: KRAS G13D FRET data IC50
KRAS G13D, sequence (P01116 other isoform, or with tags, fused parts or gaps G13D): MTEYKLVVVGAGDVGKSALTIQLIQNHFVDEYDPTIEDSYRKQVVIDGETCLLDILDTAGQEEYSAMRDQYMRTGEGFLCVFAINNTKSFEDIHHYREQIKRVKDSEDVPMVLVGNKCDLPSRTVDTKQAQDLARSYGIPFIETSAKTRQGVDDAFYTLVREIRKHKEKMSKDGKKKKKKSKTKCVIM
KRAS G13D, sequence (P62937 whole entry): as the sequence (P62937 whole entry) above
Outline: as §1

KRAS WT = KRAS WT (Homo sapiens (Human), UniProt P01116+P62937); assay: as above; assay type: biochemical; conditions: read-out: KRAS WT FRET data IC50
KRAS WT, sequence (P01116 other isoform, or with tags, fused parts or gaps): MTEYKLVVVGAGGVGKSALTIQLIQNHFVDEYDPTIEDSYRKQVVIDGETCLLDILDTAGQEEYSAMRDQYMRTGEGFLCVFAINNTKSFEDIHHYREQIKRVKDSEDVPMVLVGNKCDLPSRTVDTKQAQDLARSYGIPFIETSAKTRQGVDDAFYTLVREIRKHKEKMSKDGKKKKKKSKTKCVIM
KRAS WT, sequence (P62937 whole entry): as the sequence (P62937 whole entry) above
Outline: as §1

NRAS G12C = NRAS G12C (Homo sapiens (Human), UniProt P01111+P62937, G12C); assay: as above; assay type: biochemical
NRAS G12C, sequence (P01111 whole entry G12C): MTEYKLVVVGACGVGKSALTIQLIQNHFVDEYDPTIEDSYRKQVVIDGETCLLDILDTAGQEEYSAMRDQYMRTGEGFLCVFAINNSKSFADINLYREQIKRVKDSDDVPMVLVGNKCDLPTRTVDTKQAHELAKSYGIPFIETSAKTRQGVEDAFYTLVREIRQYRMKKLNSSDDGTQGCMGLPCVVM
NRAS G12C, sequence (P62937 whole entry): as the sequence (P62937 whole entry) above
Outline: as §1

[3] = read-out: NRAS G12C FRET data IC50

Question: Which IC50 ([1]; K-Ras G12C, 5-day treatment) does the source give for CCn1c(-c2cccnc2[C@H](C)OC)c2c3cc(ccc31)-c1csc(n1)C[C@H](NC(=O)[C@H](C(C)C)N(C)C(=O)N1CC(N(C)C(C)C)C1)C(=O)N1CCC[C@H](N1)C(=O)OCC(C)(C)C2 [Compound A318] here?
Answer: 10 to 100 nM

Question: And the IC50 ([2]; K-Ras G12V, 5-day treatment)?
Answer: 10 to 100 nM

Question: And the IC50 (KRAS G12C)?
Answer: 100 to 1000 nM

Question: And the IC50 (KRAS G12D)?
Answer: 1000 to 10000 nM

Question: And the IC50 (KRAS G12S)?
Answer: 100 to 1000 nM

Question: What about the IC50 (KRAS G12V) of the same compound?
Answer: 100 to 1000 nM

Question: What about the IC50 (KRAS G13C) of the same compound?
Answer: 100 to 1000 nM

Question: And the IC50 (KRAS G13D)?
Answer: 100 to 1000 nM

Question: What about the IC50 (KRAS WT) of the same compound?
Answer: 100 to 1000 nM

Question: And the IC50 (NRAS G12C; [3])?
Answer: 100 to 1000 nM

Question: For CCn1c(-c2cccnc2[C@H](C)OC)c2c3cc(ccc31)-c1cccc(c1)C[C@H](NC(=O)[C@H](C(C)C)N(C)C(=O)N1CC(OC)C1)C(=O)N1CCC[C@H](N1)C(=O)OCC(C)(C)C2 [Compound A355], which IC50 ([1]; K-Ras G12C, 5-day treatment) is on record?
Answer: 100 to 1000 nM

Question: And the IC50 ([2]; K-Ras G12V, 5-day treatment)?
Answer: 100 to 1000 nM

Question: And the IC50 (KRAS G12C)?
Answer: 100 to 1000 nM

Question: What about the IC50 (KRAS G12D) of the same compound?
Answer: 1000 to 10000 nM

Question: And the IC50 (KRAS G12S)?
Answer: 1000 to 10000 nM

Question: And the IC50 (KRAS G12V)?
Answer: 100 to 1000 nM

Question: What about the IC50 (KRAS G13C) of the same compound?
Answer: 100 to 1000 nM

Question: What about the IC50 (KRAS G13D) of the same compound?
Answer: 1000 to 10000 nM

Question: And the IC50 (KRAS WT)?
Answer: 100 to 1000 nM

Question: What about the IC50 (NRAS G12C; [3]) of the same compound?
Answer: 100 to 1000 nM

Question: Which results are given for CCn1c(-c2cccnc2[C@H](C)OC)c2c3cc(ccc31)-c1csc(n1)C[C@H](NC(=O)[C@H](C(C)C)N(C)C(=O)N1CCCCC1)C(=O)N1CCC[C@H](N1)C(=O)OCC(C)(C)C2 [Compound A363]?
Answer: IC50 ([1]; K-Ras G12C, 5-day treatment): 10 to 100 nM; IC50 ([2]; K-Ras G12V, 5-day treatment): 10 to 100 nM; IC50 (KRAS G12C): 10 to 100 nM; IC50 (KRAS G12D): 100 to 1000 nM; IC50 (KRAS G12S): 10 to 100 nM; IC50 (KRAS G12V): 100 to 1000 nM; IC50 (KRAS G13C): 100 to 1000 nM; IC50 (KRAS G13D): 100 to 1000 nM; IC50 (KRAS WT): 10 to 100 nM; IC50 (NRAS G12C; [3]): 10 to 100 nM

Question: CCn1c(-c2cccnc2[C@H](C)OC)c2c3cc(ccc31)-c1cc(O)cc(c1)C[C@H](NC(=O)[C@H](C(C)C)N(C)C(=O)C1CC(C)C1)C(=O)N1CCC[C@H](N1)C(=O)OCC(C)(C)C2 (some centres unmarked) [Compound A384] was tested. Which IC50 ([1]; K-Ras G12C, 5-day treatment) did it give?
Answer: 100 to 1000 nM

Question: And the IC50 ([2]; K-Ras G12V, 5-day treatment)?
Answer: 100 to 1000 nM

Question: And the IC50 (KRAS G12C)?
Answer: 10 to 100 nM

Question: And the IC50 (KRAS G12D)?
Answer: 100 to 1000 nM

Question: And the IC50 (KRAS G12S)?
Answer: 100 to 1000 nM

Question: What about the IC50 (KRAS G12V) of the same compound?
Answer: 100 to 1000 nM

Question: What about the IC50 (KRAS G13C) of the same compound?
Answer: 10 to 100 nM

Question: And the IC50 (KRAS G13D)?
Answer: 100 to 1000 nM

Question: What about the IC50 (KRAS WT) of the same compound?
Answer: 100 to 1000 nM

Question: And the IC50 (NRAS G12C; [3])?
Answer: 10 to 100 nM

Question: What does the source list for CCn1c(-c2cccnc2[C@H](C)OC)c2c3cc(ccc31)-c1cc(O)cc(c1)C[C@H](NC(=O)[C@H](C(C)C)N(C)C(=O)[C@H]1CC[C@@H]1N)C(=O)N1CCC[C@H](N1)C(=O)OCC(C)(C)C2 [Compound A392]?
Answer: IC50 ([1]; K-Ras G12C, 5-day treatment): 10 to 100 nM; IC50 ([2]; K-Ras G12V, 5-day treatment): 1000 to 10000 nM; IC50 (KRAS G12C): 10 to 100 nM; IC50 (KRAS G12D): 10 to 100 nM; IC50 (KRAS G12S): 10 to 100 nM; IC50 (KRAS G12V): 100 to 1000 nM; IC50 (KRAS G13C): 10 to 100 nM; IC50 (KRAS G13D): 10 to 100 nM; IC50 (KRAS WT): 10 to 100 nM; IC50 (NRAS G12C; [3]): 10 to 100 nM

Question: What does the source list for CCn1c(-c2cccnc2[C@H](C)OC)c2c3cc(ccc31)-c1cc(O)cc(c1)C[C@H](NC(=O)[C@H](C(C)C)N(C)C(=O)C1CCNC13CCC3)C(=O)N1CCC[C@H](N1)C(=O)OCC(C)(C)C2 (some centres unmarked) [Compound A393]?
Answer: IC50 ([1]; K-Ras G12C, 5-day treatment): 100 to 1000 nM; IC50 ([2]; K-Ras G12V, 5-day treatment): 1000 to 10000 nM; IC50 (KRAS G12C): 10 to 100 nM; IC50 (KRAS G12D): 10 to 100 nM; IC50 (KRAS G12S): 10 to 100 nM; IC50 (KRAS G12V): 100 to 1000 nM; IC50 (KRAS G13C): 10 to 100 nM; IC50 (KRAS G13D): 10 to 100 nM; IC50 (KRAS WT): 10 to 100 nM; IC50 (NRAS G12C; [3]): 10 to 100 nM

Question: For CCn1c(-c2cccnc2[C@H](C)OC)c2c3cc(ccc31)-c1csc(n1)C[C@H](NC(=O)[C@H](C(C)C)N(C)C(=O)N1CCOC[C@H]1C)C(=O)N1CCC[C@H](N1)C(=O)OCC(C)(C)C2 [Compound A402], which IC50 ([1]; K-Ras G12C, 5-day treatment) is on record?
Answer: 10 to 100 nM

Question: And the IC50 ([2]; K-Ras G12V, 5-day treatment)?
Answer: 10 to 100 nM

Question: What about the IC50 (KRAS G12C) of the same compound?
Answer: 10 to 100 nM

Question: What about the IC50 (KRAS G12D) of the same compound?
Answer: 100 to 1000 nM

Question: And the IC50 (KRAS G12S)?
Answer: 100 to 1000 nM

Question: And the IC50 (KRAS G12V)?
Answer: 100 to 1000 nM

Question: What about the IC50 (KRAS G13C) of the same compound?
Answer: 100 to 1000 nM

Question: And the IC50 (KRAS G13D)?
Answer: 100 to 1000 nM

Question: What about the IC50 (KRAS WT) of the same compound?
Answer: 10 to 100 nM

Question: What about the IC50 (NRAS G12C; [3]) of the same compound?
Answer: 10 to 100 nM

Question: Which results are given for CCn1c(-c2cccnc2[C@H](C)OC)c2c3cc(ccc31)-c1cc(O)cc(c1)C[C@H](NC(=O)[C@H](C(C)C)N(C)C(=O)C1CCC(C(F)(F)F)O1)C(=O)N1CCC[C@H](N1)C(=O)OCC(C)(C)C2 (some centres unmarked) [Compound A408]?
Answer: IC50 [1]: 100 to 1000 nM; IC50 [2]: 1000 to 10000 nM; IC50 (KRAS G12C): 10 to 100 nM; IC50 (KRAS G12D): 100 to 1000 nM; IC50 (KRAS G12S): 10 to 100 nM; IC50 (KRAS G12V): 100 to 1000 nM; IC50 (KRAS G13C): 10 to 100 nM; IC50 (KRAS G13D): 100 to 1000 nM; IC50 (KRAS WT): 100 to 1000 nM; IC50 (NRAS G12C; NRAS G12C FRET data IC50): 10 to 100 nM
